Results on one molecule are retold here after patent US20040171511A1, “Allergen removing agent” (priority 2001, published 2004).

On the data set, the source says:
Component (c1-1) is preferably in a state that it is soluble in the allergen-removing agent.

Regarding `CCCCCCCCCCCCCCCCO` [palmityl alcohol], the “solubility in component (a)” value is on record as no less than 5 g/100 g and the solubility in water is no more than 0.3 g/100 g.
